Measured values: article PMC10259451 (Journal of Medicinal Chemistry, 2023)
≈ marks a conversion by molar mass, not a printed value.

Assays:
[1] = Kinetic aqueous solubility; assay type: physicochemical; details: pH 7.4, Sol. (aqueous solubility)
[2] = tested on: L. mexicana intracellular amastigotes; assay type: cell-based, Leishmania mexicana
L. mexicana [3] = details: administered orally; cited from earlier work
L. mexicana [4] = experiment: Murine model of cutaneous leishmaniasis, footpad lesion size; assay type: in vivo, BALB/c mice; details: PO 50mg/kg/day for 10 days; p < 0.0001, Mann–Whitney

`O=C(Nc1cccc(-c2ncco2)c1)c1cc([N+](=O)[O-])c(F)cc1F` [compound 71] gave a solubility [1] of roughly 9 µM (≈ 3.11 µg/mL).
In the case of `Cc1ccc(-c2nc3ccccc3s2)cc1NC(=O)c1ccc(F)c([N+](=O)[O-])c1` [compound 10], the “antileishmanial activity in words” value ([2]; L. mexicana amastigotes) is reported as “active”.
For `Cc1ccc(-c2nc3ccccc3s2)cc1NC(=O)c1cc([N+](=O)[O-])c(N2CCN(C)CC2)cc1Cl` [compound 4], the “efficacy in murine model of cutaneous leishmaniasis” value (L. mexicana [3]) is listed as “less efficacious than the positive control, miltefosine”.
For `O=C(Nc1ccc(Cl)c(Cl)c1)c1ccc(N2CCNCC2)c([N+](=O)[O-])c1` [compound 79], the EC50 ([2]; Leishmania mexicana, J774.A1, read-out: L. mexicana EC50, intracellular amastigotes in J774A.1 macrophages, mean ± SD, at least three experiments) was 660 nM and the “lesion size vs vehicle” value (L. mexicana [4]) was “significantly smaller lesions at weeks 4 and 5”.
